# “Also recorded” adds a separate entry of the source.
# Key:
# RAW264.7 macrophages [1] = experiment: Lactate dehydrogenase (LDH) assay in macrophages; format: cell-based, murine; details: macrophages, serum starved, 1 hour
# Procedure: Effect of Abeta-Glu-OC (3 ng) mixture on macrophage integrity: To determine whether the mixture produced any toxicity lactate dehydrogenase (LDH) assay was performed. Briefly, the cells were incubated with the mixture under serum starved conditions for 1 hour followed by LDH assay. LDH was assayed using In vitro toxicology assay kit from Sigma-Aldrich, St. Louis, Mo., USA (cat. no.-TOX7) as per the manufacturer's directions. LDH assay substrate solution, LDH assay dye solution and 1×LDH assay cofactor were provided with the kit. […] To this LDH assay mixture was added and incubated at room temperature in the dark for 20-30 min. The reaction was terminated by the addition of 1/10 volume of 1N HCl. Absorption was taken 490 nm with the help of in a Tecan Microplate reader, Switzerland with Magellan™ software.
# [2] = test system: carrageenan induced paw edema; experiment: Carrageenan induced paw inflammation in mice; format: in vivo, mouse; details: Ibuprofen 100 mg/kg, 5th hour
# Procedure: The effect of A-O complex was tested under in vivo conditions. Carrageenan, an inflammation inducing agent was injected into the hind foot pad of mouse to induce acute inflammation. The edema attains peak at around 3 hours post carrageenan challenge. This is a convenient model to assess the anti-inflammatory potency of test drugs to reduce or prevent the development of swelling. The protocol followed herein is as per Morris (2003) [Morris C J, 2003, Carrageenan induced paw edema in rat and mouse. In: Winyard P. G., Willoughby D. A. (eds) Inflammation Protocols. Methods in Molecular Biology, Vol 225. Humana Press. Pp 115-121].
# Preparation of carrageenan: To prepare 0.5% of carrageenan solution, 50 mg of lamda-carrageenan ([…], Sigma Chemical Co., St. Louis, Mo., USA) was slowly added onto a small beaker containing 10 ml of normal saline. The powder was allowed to swell for some time and then slightly heated (not boiled) to dissolve the carrageenan. The solution was stirred during the heating. Once dissolved, the solution was cooled and aliquoted and stored at 4 degree Celsius.
# Method: For experiment, the mice were acclimatized in cages under standard light and temperature settings with access to food and water ad libitum. Mice were acclimatized for 1 week in respective cages to minimize stress. At the day of experiment, mice were placed in a temporary animal restraint and 50 microlitre of carrageenan solution was administered by intraplantar injection to the right hind paw of each mouse. The left paw served as control and was administered 50 microlitre of normal saline.
# To determine the efficacy of A-O complex different concentrations of complex viz. 5, 20 and 50 microgram per 100 g body weight of mice were administered intraperitoneally 1 hour before carrageenan challenge. Ibuprofen (100 mg/kg, Sigma Chemical Co., St. Louis, Mo., USA) served as positive control for the experiment. Paw size was measured by wrapping a piece of cotton thread round the paw of each […] and recording the length of the thread, the paw circumference, by use of a metric ruler. Paws were measured immediately before and at specified time points after carrageenan injection. Inhibitory activity was calculated at 1-5 h after carrageenan injection with the following formula: % Inhibition=[(Ct−C0)control−(Ct−C0)treated]/(Ct−C0)control×100, where Ct is paw size after carrageenan injection and C0 is paw size before carrageenan injection.
# 5×FAD Tg mice [3] = experiment: Morris water maze test in 5×FAD Tg mice; format: in vivo; details: 300 ng per mouse subcutaneously for 2 months, vs 5×FAD Tg control
# Procedure: (§1) Two month old 5×FAD Tg mice, both male as well as female were used for the study. For the purposes of this study wild type mice is referred to as Wt and 5×FAD mice is referred to as Tg. For experimentation, the mice were divided in below groups for treatment: 1. Wild type mice given vehicle (1×PBS or phosphate buffered saline; pH 7.4). 2. 5×FAD Transgenic mice given vehicle. 3. 5×FAD Transgenic mice given undercarboxylated osteocalcin (Glu-OC) subcutaneously at dose of 300 ng per mouse of weight ranging from 25-28 g for 2 months.
# Glu-OC at a dose of 300 ng per mouse was administered subcutaneously for 2 months. To evaluate the potential of Glu-OC against development of Alzheimer's disease in 5×FAD Tg mice (a mouse model for Alzheimer's disease), the following methodologies used conducted: Morris water maze (MWM) test, immunohistochemistry, double immunostaining, ELISA and Congo Red staining. […] The training was given for the five consecutive days, with the video recording and the track of the animal was also recorded using the Any-maze animal behaviour software. Time taken to find the hidden platform is calculated and plotted.
# Abeta42 = target: T1, Abeta42 (Homo sapiens, UniProt P05067); experiment: Abeta42 fibrillization in situ (TEM, Thioflavin T binding assay); format: biochemical
# T1 construct: of Abeta 1-42 peptide; Molecular weight = 4514.1; purchased r-peptide
# Procedure: For this study, different concentrations of Glu-OC viz. […] After keeping the samples for 5 minutes, the excess was washed off with ultrapure water and surplus sample and water were wicked away using absorbent paper. The samples were negatively stained using 1% uranyl acetate stain, dried and analyzed in a transmission electron microscope CM10 Philips operated at 80 kV. […] ThT assay measures the changes in fluorescence intensity of ThT upon binding to amyloid fibrils. […] The resulting ThT fluorescence intensities of samples were measured at an emission wavelength of 480 nm and excitation wavelength of 440 nm and 5 nm slit width using a Jobin Vyon Horiba Fluoromax-4 spectrofluorimeter. The inner filter effect was taken into account using the Equation: Fc=F×anti log[(Aex+Aem)/2] where Fc is the corrected flourescence and F is apparent fluorescence, Aex and Aem are the absorbances of the samples at excitation and emission wavelengths respectively.
# 5×FAD Tg mice [4] = experiment: Brain amyloid pathology by Congo Red staining and fibrillar Abeta42 immunostaining; format: in vivo, mouse; details: for amyloid pathology / deposits in brain (Congo Red): 300 ng per mouse subcutaneously for 2 months
# Procedure: as §1
# (§2) For immunohistochemistry, sacrificed animals were perfused using 4% paraformaldehyde perfusion through the heart and the brains were harvested and submerged in the same fixative for not more than 24 hours. Brains were then washed in 1×PBS (pH 7.4) and placed in 30% sucrose-PBS solution where these initially floated owing to the weight of the sucrose. Upon saturation, the brains sank to the bottom of the sucrose solution. These were then removed and washed in PBS. Brain samples were quick frozen in liquid nitrogen and then embedded in polyfreeze tissue freezing medium in a plastic mould inside a cryostat where in temperature was −20° C. The samples were then stored in −80° C. until sectioning. Sections of 15-20 micrometre was cut in a cryostat and laid over high adsorbent microslides. For unmasking antigens, slides were heated at 55° C. for 10 min followed by hydration in PBS for 5 min and then permeabilization using 0.1% Triton X-100 in PBS containing 1% BSA and 1% normal goat serum (IHC buffer). For immunostaining, brain sections were incubated in primary antibodies (fibrillar Amyloid beta antibody, catalogue number MABN638 was from Millipore-Merk; osteocalcin antibody-catalogue number sc365797 was from Santa Cruz Biotechnology; Abeta1-42 antibody D923A #14974 was from Cell Signaling Technology) diluted in IHC buffer in a humidified chamber at room temperature overnight. For double immunostaining, specific antibodies against Abets42 and osteocalcin were incubated together with brain sections. […]
# RAW264.7 macrophages [5] = experiment: qPCR of Cd74, Cd36 in serum starved macrophages; format: cell-based, murine; details: unstimulated RAW264.7 macrophages, with respect to basal
# 5×FAD Tg mice [6] = experiment: ELISA of soluble and insoluble Abeta42 in brain; format: in vivo, mouse; details: vs 5×FAD Tg control
# Procedure: as §1
# as §2, with “sections. After rinsing with PBS three times for 5 min each, sections were incubated with the appropriate secondary antibody conjugated with AlexaFluor 594 or 488 (Molecular Probes, Invitrogen) for 2 h at room temperature. After rinsing with PBS, the coverslips were mounted with ProLong anti-fade mounting medium containing 4′,6-diamidino-2-phenylindole (DAPI) and imaged. Congo Red staining was done using staining kit from Abcam (ab150663) according to manufacturer's instructions. ELISA or enzyme linked immunosorbent assay was conducted on soluble and insoluble fractions prepared from brain samples. (a.) Preparation of soluble or DEA fraction or non-plaque associated Abeta.” for “sections.”
# T1 sequence (P05067 672-713): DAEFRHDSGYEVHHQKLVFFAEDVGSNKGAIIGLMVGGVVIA
compound,measurement,setting,value
"OO [H2O2, hydrogen peroxide]",LDH in cell culture supernatants (LDH release),RAW264.7 macrophages [1],induces LDH release
same,intracellular LDH,RAW264.7 macrophages [1]; vs control,rise in intracellular LDH
"CC(C)Cc1ccc(C(C)C(=O)O)cc1 (stereo not drawn) [Positive control, Ibuprofen, reference compound]",edema inhibition,[2],78%
undercarboxylated osteocalcin [Glu-OC],escape latency (Morris water maze),5×FAD Tg mice [3],lower escape latency; also recorded: reduced escape latency
same,Abeta42 fibrillization (TEM),Abeta42; Abeta42 100 micromolar with 3 ng of osteocalcin,Mature fibrils
same,Abeta42 fibrillization (TEM),"Abeta42; Abeta42 100 micromolar, Glu-OC 3-10 ng or none, 1×PBS pH 7.4, 37° C., 8 hours",demonstrated fibrillization
same,amyloid pathology / deposits in brain (Congo Red),5×FAD Tg mice [4],significant reduction in amyloid pathology
same,amyloid pathology / deposits in brain (Congo Red),5×FAD Tg mice [4]; listed as Gla-OC,lesser amyloid deposits
same,fibrillar Abeta42 immunostaining of brain,5×FAD Tg mice [4]; fibrillar specific Abeta42 antibody,fewer yet larger Abeta42+ fibrillar amyloid deposits; also recorded: positive for intense fibrillar Abeta42 structures
same,increase in mRNA level of Cd36,RAW264.7 macrophages [5],do not elicit induction
same,increase in mRNA level of Cd74 (MHC-II),RAW264.7 macrophages [5],do not elicit induction
same,insoluble (plaque associated) Abeta42 level in brain,5×FAD Tg mice [6],reduced
same,soluble Abeta42 level in brain,5×FAD Tg mice [6],increased
same,insoluble (plaque associated) Abeta42 level in brain,5×FAD Tg mice [6]; listed as Gla-OC,significantly reduced
same,soluble Abeta42 level in brain,5×FAD Tg mice [6]; listed as Gla-OC,significantly increased

# From patent publication US11447534B2, “Peptide complex with immunodulatory and anti-inflammatory function” (NATIONAL INSTITUTE OF IMMUNOLOGY, priority 2018, dated 2022)
